Source: PubChem BioAssay (NCI)
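Compound exposure: 48 hours, 5 concentrations, 96-well plates. Abbreviation: GI50, concentration required for 50% inhibition of growth. TGI denotes the concentration required for complete inhibition of growth.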

Assays:
Experiment in all cases: NCI anticancer screen, dose series, 48 h
[1] = tested on: CCRF-CEM leukemia
[2] = tested on: HOP-62 NSCLC
[3] = tested on: OVCAR-8 ovarian
[4] = tested on: NCI-H226 lung
[5] = tested on: SNB-75 CNS
[6] = tested on: SW-620 colon
[7] = tested on: M14 melanoma
[8] = tested on: HCT-15 colon
[9] = tested on: SR leukemia
[10] = tested on: RXF 393 renal

CC1CC2(C)CC(=O)C1C1C(=O)N(CCN3CCCCC3)C(=O)C12 (centres undefined)
GI50 [1]: > 100 µM | TGI [1]: > 100 µM | GI50 [2]: > 100 µM | TGI [2]: > 100 µM | GI50 [3]: > 100 µM | TGI [3]: > 100 µM | GI50 [4]: > 100 µM | TGI [4]: > 100 µM | GI50 [5]: > 100 µM | TGI [5]: > 100 µM | GI50 [6]: > 100 µM | TGI [6]: > 100 µM | GI50 [7]: > 100 µM | TGI [7]: > 100 µM | GI50 [8]: > 100 µM | TGI [8]: > 100 µM | GI50 [9]: > 100 µM | TGI [9]: > 100 µM

COc1cccc(NC(=O)C(=O)C(C(C)=O)c2nc3ccc(Cl)cc3[nH]c2=O)c1 (centres undefined)
TGI [1]: > 100 µM | TGI [2]: > 100 µM | TGI [3]: > 100 µM | TGI [4]: > 100 µM | TGI [5]: > 100 µM | TGI [6]: > 100 µM | TGI [7]: > 100 µM | TGI [10]: > 100 µM | TGI [8]: > 100 µM

CC(C)C(=O)Oc1cc2c(=O)oc3c(OC(=O)C(C)C)c(OC(=O)C(C)C)cc4c(=O)oc(c1OC(=O)C(C)C)c2c34
TGI [1]: > 100 µM | TGI [2]: > 100 µM | TGI [3]: > 100 µM | TGI [4]: > 100 µM | TGI [5]: > 100 µM | TGI [6]: > 100 µM | TGI [7]: > 100 µM | TGI [10]: > 100 µM | TGI [8]: > 100 µM

C[C@@H]1C[C@]2(C[C@@H](C)C3[C@@H](CC4(C)[C@@H]5CCC6C(C)(C)OC(=O)C=C[C@]67C[C@@]5(CC[C@]34C)OO7)O2)OC1=O (some centres undefined)
TGI [3]: > 100 µM | TGI [4]: > 100 µM | TGI [5]: 56.9 µM | TGI [6]: > 100 µM | TGI [7]: > 100 µM | TGI [10]: > 100 µM | TGI [8]: > 100 µM | TGI [9]: > 100 µM

C/C=C1\C(=O)OC2CCN3CCC(COC(=O)C(C)(O)C(C)C1O)C23 (centres undefined)
TGI [3]: > 100 µM | TGI [4]: > 100 µM | TGI [5]: > 100 µM | TGI [6]: > 100 µM | TGI [7]: > 100 µM | TGI [8]: > 100 µM

FC1OC2OC1C(OCc1ccccc1)C(OCc1ccccc1)C2OCc1ccccc1 (centres undefined)
TGI [1]: 75.8 µM | TGI [3]: > 100 µM | TGI [4]: > 100 µM | TGI [5]: > 100 µM | TGI [6]: > 100 µM | TGI [7]: > 100 µM | TGI [10]: > 100 µM | TGI [8]: > 100 µM

S=c1nc(-c2ccnc(-c3nc(=S)[nH][nH]3)c2)[nH][nH]1
TGI [1]: > 100 µM | TGI [2]: > 100 µM | TGI [3]: > 100 µM | TGI [4]: > 100 µM | TGI [6]: > 100 µM | TGI [7]: > 100 µM | TGI [10]: > 100 µM | TGI [8]: > 100 µM

CC1OC(OC2CCC3(C=O)C4CCC5(C)C(C6=CC(=O)OC6)CCC5(O)C4CCC3(O)C2)C(O)C(O)C1O (centres undefined)
TGI [2]: 3.85e-05 µM | TGI [3]: 6.21e-05 µM | TGI [4]: 0.000111 µM | TGI [5]: 0.36 µM | TGI [6]: 8.69e-05 µM | TGI [10]: 8.12e-05 µM | TGI [8]: 9.68e-05 µM

CC(=O)C1C(=O)N(C(C)C)C[C@@H]2CCC(=O)C[C@H]12 (some centres undefined)
TGI [1]: > 100 µM | TGI [2]: > 100 µM | TGI [3]: > 100 µM | TGI [5]: > 100 µM | TGI [6]: > 100 µM | TGI [7]: > 100 µM | TGI [10]: > 100 µM | TGI [8]: > 100 µM

CCOc1ccc(C(CN2CCOCC2)C(C)=O)cc1OC (centres undefined)
TGI [1]: 26.1 µM | TGI [2]: 40.4 µM | TGI [3]: 37.7 µM | TGI [4]: 32.4 µM | TGI [5]: 32.6 µM | TGI [6]: 31.2 µM | TGI [7]: 33.7 µM | TGI [10]: 41.1 µM | TGI [8]: 22.5 µM

Cc1nc(-n2nc(-c3ccccc3)cc2-c2ccccc2)sc1C(/C=C/c1ccc([N+](=O)[O-])cc1)=N/NC(=O)c1ccncc1
TGI [1]: > 100 µM | TGI [2]: 35 µM | TGI [3]: > 100 µM | TGI [4]: 56.9 µM | TGI [5]: > 100 µM | TGI [6]: > 100 µM | TGI [7]: 50.7 µM | TGI [10]: 76.6 µM | TGI [8]: 96.2 µM
